Data as given in ChEMBL document CHEMBL4715766, “Systemic structure-activity relationship study of phenyl polyyne diols as potential chemopreventive agents” (Bioorg Med Chem Lett, 2016).
pIC50: −log10 of the molar value.

What was measured:
[1] = Cytotoxicity against mouse Hepa1c1c7 cells; type: cell-based; conditions: Hepa-1c1c7
[2] = Chemopreventive index, ratio of IC50 for mouse Hepa-1c1c7 cells to drug level required to double NADPH:quinone reductase activity in mouse Hepa-1c1c7 cells
[3] = target: NAD(P)H dehydrogenase [quinone] 1 (Mus musculus) (UniProt Q64669); conditions: Hepa1c1c7, filed as activator
NAD(P)H dehydrogenase [quinone] 1 (Mus musculus), sequence (Q64669 whole entry): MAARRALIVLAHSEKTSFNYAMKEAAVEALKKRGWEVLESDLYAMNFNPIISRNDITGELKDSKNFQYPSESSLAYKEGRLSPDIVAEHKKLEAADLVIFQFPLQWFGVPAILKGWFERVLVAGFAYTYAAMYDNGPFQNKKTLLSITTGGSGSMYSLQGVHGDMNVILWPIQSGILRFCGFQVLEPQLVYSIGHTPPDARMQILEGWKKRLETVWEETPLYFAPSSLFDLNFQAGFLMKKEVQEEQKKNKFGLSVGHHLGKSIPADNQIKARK
Description: Induction of quinone reductase activity in mouse Hepa1c1c7 cells

Structure (SMILES) | pIC50 [1] | Ratio [2] | CD [3] [µM]
CCCCCC(O)C#CC#CC(O)c1ccc2c(c1)OCO2 (centres undefined) | < 4.30 | >28.2 | –
C[S+]([O-])CCCCN=C=S (centres undefined) [SULFORAPHANE] | – | 29.5 | 0.5
